In PubChem BioAssay (NCI):
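The compound was tested at five concentrations on cells cultured in 96-well plates, with a 48-hour exposure period. GI50 is the concentration that inhibits growth by half. The concentration for full growth arrest is given as TGI.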

Legend:
Experiment in all cases: NCI anticancer screen, dose series, 48 h
[1] = test system: SNB-75 CNS
[2] = test system: SR leukemia
[3] = test system: SNB-19 CNS
[4] = test system: HT29 colon
[5] = test system: NCI-H460 lung
[6] = test system: OVCAR-8 ovarian
[7] = test system: HL-60(TB) leukemia
[8] = test system: SK-MEL-2 melanoma
[9] = test system: MCF7 breast
[10] = test system: BT-549 breast

Row | SMILES | TGI [1] | TGI [2] | TGI [3] | TGI [4] | TGI [5] | TGI [6] | TGI [7] | TGI [8] | GI50 [9] | TGI [9] | GI50 [2] | GI50 [3] | GI50 [4] | GI50 [5] | GI50 [6] | GI50 [7] | GI50 [1] | GI50 [8] | GI50 [10] | TGI [10]
1 | CCOC(=O)C(C)(C)Oc1ccc2c(-c3ccc(Cl)cc3)cc(=O)oc2c1 | > 100 µM | > 100 µM | > 100 µM | > 100 µM | > 100 µM | > 100 µM | > 100 µM | > 100 µM | – | – | – | – | – | – | – | – | – | – | – | –
2 | Cn1c(=O)c2[nH]c(COc3ccc(C(C)(C)C)cc3)nc2n(C)c1=O | – | 55.9 µM | > 100 µM | > 100 µM | > 100 µM | 67.1 µM | 50.3 µM | – | 17.1 µM | 62.8 µM | 5.12 µM | 82.3 µM | 29.3 µM | 15.4 µM | 18.3 µM | 10.6 µM | – | – | – | –
3 | CCOC(=O)C(C[Si](C)(C)C)P(=O)(OCC)OCC (stereo not given) | > 100 µM | > 100 µM | – | > 100 µM | > 100 µM | > 100 µM | > 100 µM | – | – | – | – | – | – | – | – | – | – | – | – | –
4 | O=c1cccccc1NCCCCNc1cccccc1=O | > 100 µM | – | > 100 µM | > 100 µM | > 100 µM | > 100 µM | > 100 µM | > 100 µM | – | – | – | – | – | – | – | – | – | – | – | –
5 | C[Si](C)(C)/C=C/CN1C(=O)CCC1O (stereo not given) | > 100 µM | > 100 µM | > 100 µM | > 100 µM | > 100 µM | > 100 µM | > 100 µM | > 100 µM | – | – | – | – | – | – | – | – | – | – | – | –
6 | CC/C=C\CCC/C=C1/C(=O)C=C[C@@H]1C/C=C\CCCC(=O)O | 44.9 µM | 8.57 µM | 20 µM | 5.27 µM | 25.3 µM | 9.87 µM | 7.41 µM | 18.3 µM | 3.07 µM | 16.8 µM | 1.92 µM | 5.45 µM | 2.5 µM | 4.49 µM | 2.96 µM | 2.75 µM | 18 µM | 4.82 µM | – | –
7 | O=c1[nH]c(=S)[nH]c(O)c1/C=C1\C=CC=N1 | 42.5 µM | 18 µM | > 100 µM | 54.2 µM | 65.5 µM | 17.9 µM | > 100 µM | 51.4 µM | – | – | – | – | – | – | – | – | – | – | – | –
8 | CN(O)C(=O)Cc1ccccc1 | > 100 µM | > 100 µM | > 100 µM | > 100 µM | > 100 µM | > 100 µM | > 100 µM | – | – | – | – | – | – | – | – | – | – | – | – | –
9 | Cc1ccc(N2C(=O)/C(=C3\Sc4c(nc(C)[nH]c4=O)N3c3ccccc3)SC2=S)cc1 | 56.4 µM | – | > 100 µM | > 100 µM | > 100 µM | > 100 µM | > 100 µM | > 100 µM | – | – | – | – | – | – | – | – | – | – | – | –
10 | O=[N+]([O-])c1ccccc1C1N2CCCCC2[C@@H]2c3[nH]c4ccccc4c3CCN12 (stereo not given in full) | – | – | 33.4 µM | 20.8 µM | 34.7 µM | 39.1 µM | 16.8 µM | 26.5 µM | – | – | – | – | – | – | – | – | – | – | – | –
11 | CCC1(OC(C)=O)C(=O)OCc2c1cc1n(c2=O)Cc2cc3ccccc3nc2-1 (stereo not given) | > 44.6 µM | 11.9 µM | > 100 µM | > 100 µM | 7.15 µM | > 100 µM | – | > 100 µM | – | – | – | – | – | – | – | – | – | – | – | –
12 | O=C1C(c2ccccc2)=C(c2ccccc2)C(c2ccc(CCCCCCc3ccc(C4=C(c5ccccc5)C(=O)C(c5ccccc5)=C4c4ccccc4)cc3)cc2)=C1c1ccccc1 | – | – | > 100 µM | > 100 µM | > 100 µM | > 100 µM | > 100 µM | > 100 µM | – | – | – | – | – | – | – | – | – | – | – | –
13 | COc1ccc(-c2ccc(-c3ccc(C(=N)N)cn3)s2)cc1Cl | 2.85 µM | – | 3.61 µM | 2.87 µM | 3.02 µM | 4.58 µM | – | 4.14 µM | 1.52 µM | 3.29 µM | – | 1.73 µM | 1.18 µM | 1.61 µM | 2.09 µM | – | 1.45 µM | 2.01 µM | 1.67 µM | 3.43 µM
14 | CCCCCCCCCC(=O)CC(=O)c1c(O)cccc1O | 99.7 µM | – | > 100 µM | 65.8 µM | > 100 µM | > 100 µM | 45.3 µM | 67 µM | – | – | – | – | – | – | – | – | – | – | – | –
15 | O=c1c([Se]c2coc3ccccc3c2=O)coc2ccccc12 | 29.1 µM | 22.4 µM | 27.4 µM | 32.4 µM | 14 µM | 25.5 µM | > 100 µM | 32.4 µM | – | – | – | – | – | – | – | – | – | – | – | –
16 | O=C1C2=C(c3ccccc31)C(c1ccccc1Cl)N1C(=O)CSC1=N2 (stereo not given) | > 100 µM | – | > 100 µM | > 100 µM | > 100 µM | > 100 µM | > 100 µM | > 100 µM | – | – | – | – | – | – | – | – | – | – | – | –
